Patent US10780061B2, “Composition comprising farnesol and use thereof” (Daegu Gyongbuk Institute of Science and Technology, priority 2014, dated 2020)

How the values were obtained:
PARIS, PGC-1α = assay: Immunoprecipitation for PGC-1α expression and PARIS-farnesylation, short-term high fat diet; format: in vivo, mouse; conditions: high fat diet with 0.5% compound, 5 days, gastrocnemius muscles
Source text: To prepare the PGC-1α-inhibited model, 3-month-old mouse (female, body weight of 20 g) is fed with high fat diet, in which fat is increased to 60%, compared to a negative control group, for 5 days (short-term effect) or 3 months (long-term effect). The negative control group is fed with a general diet. Farnesol is mixed in the high fat diet at a content of 0.5% (weight of farnesol/weight of diet). A positive control group is fed with high fat diet containing a type II diabetes drug, metformin at a content of 0.5% (weight of metformin/weight of diet). Mice are fed with the general diet, the high fat diet, and the high fat diet containing farnesol or metformin for 3 months, and then hind limbs are removed to analyze muscle differentiation and mitochondrial enzyme activity.
The effects of high fat diet and farnesol and metformin on PGC-1α induction by PARIS-farnesylation are evaluated. To analyze effect of short-term high fat diet, mice are fed with the above conditions for 5 days. Immunoblotting of PGC-1α and PARIS in gastrocnemius muscles of the mice is performed.
In this regard, PARIS-farnesylation is normalized to the immunoprecipitated PARIS expression level.

PGC-1α = assay: Immunoblotting of tibialis anterior muscles of mice administered with farnesol; format: in vivo, mouse; conditions: 5 month-old mice, feed with 0.5% w/w farnesol, 5 weeks
Method: (§1) 5 month-old C57BL/6 male mice (weighing 22 g) are maintained at a temperature of 22±2° C., humidity of 55±5%, and a light-dark cycle of 12:12 hours. An animal feed containing 0.5% w/w farnesol was supplied by Jung-Ang Lab Animal Inc. A control group is fed with a feed equivalent to a general feed for experimental animals, excluding that no 0.5% w/w farnesol is contained. They are allowed free access to drinking water. Skeletal muscles were separated from the mice and control mouse fed with farnesol for 5 weeks, and subjected to immunoblot analysis. In all the following Examples, administration or feeding of mouse is performed as above, unless otherwise mentioned. […] In this specification, assuming that human life expectancy of 100 years corresponds to mouse life expectancy of 3 years, human life expectancy is estimated from the relationship.

[1] = test system: lower limb muscles (GAS, SOL, EDL, TA); assay: Observation of lower limb muscles of mice administered with farnesol; format: in vivo, mouse; conditions: mice fed with farnesol for 5 weeks
Method: as §1, with “relationship. […] Herein, GAS indicates gastrocnemius muscle, SOL indicates soleus muscle, EDL indicates extensor digitorum longus muscle, and TA indicates tibialis anterior muscle. Gastrocnemius muscle exists as a white muscle because glycolytic muscle fibers are mainly distributed therein.” for “relationship.”

human PARIS (WT, C631S) [2] = biological target: T1, human PARIS (WT, C631S) (Homo sapiens, UniProt Q6NUN9); assay: Immunoprecipitation of PARIS WT and PARIS C631S mutant in C2C12 myoblasts; format: cell-based; conditions: C2C12 with FLAG-PARIS WT, 0.1 uM farnesol, 24 hours
T1 construct: Human full length PARIS cDNA (IMAGE: 30347892); expressed in transfected cells; host or cells: C2C12 myoblasts, pCMV-Tag2A (Stratagene)
T1 sequence (Q6NUN9 whole entry C631S): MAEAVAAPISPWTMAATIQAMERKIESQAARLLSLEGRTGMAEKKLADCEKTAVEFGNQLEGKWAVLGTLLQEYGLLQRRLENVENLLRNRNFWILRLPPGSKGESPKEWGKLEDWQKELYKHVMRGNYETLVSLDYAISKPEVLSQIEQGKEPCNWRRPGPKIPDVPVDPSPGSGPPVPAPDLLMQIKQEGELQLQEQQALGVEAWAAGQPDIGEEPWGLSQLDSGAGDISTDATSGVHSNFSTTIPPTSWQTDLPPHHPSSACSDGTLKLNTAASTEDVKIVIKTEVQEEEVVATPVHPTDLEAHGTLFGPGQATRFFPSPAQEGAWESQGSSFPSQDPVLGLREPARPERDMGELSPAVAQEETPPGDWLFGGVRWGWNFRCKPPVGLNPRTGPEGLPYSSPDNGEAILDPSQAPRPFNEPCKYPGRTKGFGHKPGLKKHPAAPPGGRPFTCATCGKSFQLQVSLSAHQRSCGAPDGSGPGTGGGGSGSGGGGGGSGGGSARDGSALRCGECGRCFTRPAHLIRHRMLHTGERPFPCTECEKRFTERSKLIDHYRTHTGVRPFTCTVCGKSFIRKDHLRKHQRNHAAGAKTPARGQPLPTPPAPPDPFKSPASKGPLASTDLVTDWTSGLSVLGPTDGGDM
Method: (§2) To examine whether cysteine residues of CGLS sequence (631-634) of an amino acid sequence (SEQ ID NO: 11) of human PARIS are farnesylation sites, a FLAG-PARIS wild-type (WT) gene or a FLAG-PARIS C631S mutant (hereinafter, referred to as “MT”) gene is introduced into C2C12 myoblasts in the presence of DMSO or 0.1 uM farnesol, and the gene is expressed in C2C12 myoblasts by culturing them in DMEM containing 10% FBS for 24 hours. Immunoprecipitation and promoter activity analysis of a cell lysate are performed. The site of amino acid sequence (SEQ ID NO: 10) of mouse PARIS corresponding to CGLS sequence (631-634) of the amino acid sequence (SEQ ID NO: 11) of human PARIS is residues at positions 638-641. This CGLS sequence is conserved in mammals as well as humans and mice, and thus C of CGLS which is located at the C-terminus is a farnesylation site regardless of the length of the sequence.
(§3) Human full length PARIS cDNA (IMAGE: 30347892; Open Biosystems) (SEQ ID NO: 9) is cloned into BamH1 and EcoR1 restriction sites of a mammalian gene expression vector, pCMV-Tag2A (Stratagene). The pCMV-Tag2A vector is a plasmid-derived mammalian expression vector for tagging proteins with an N-terminal FLAG epitope. A QuikChange site-directed mutagenesis kit (Stratagene) is used to prepare pCMV-PARIS C631S, in which a PARIS C631S gene mutant obtained by substituting serine for the cysteine residue at position 631 of human PARIS is cloned into BamHI and EcoRI restriction sites of pCMV-Tag2A (Stratagene). After preparation of the mutant gene, the gene is introduced into pCMV to prepare an overexpression vector. To prepare the PARIS C631S gene, a pair of primers (SEQ ID NOS: 12 and 13) is used. Thereafter, a nucleotide sequence of the PARIS C631S gene thus prepared is confirmed by automated DNA sequencing.
(§4) In the case of PARIS C631S mutant, no farnesylation occurs. […] In FIG. 5C, − represents C2C12 myoblasts introduced with no PARIS gene, and WT and MT represent C2C12 myoblasts introduced with the wild-type PARIS gene and the mutant PARIS gene, that is, PARIS C631S gene, respectively. […]

human PARIS (WT, C631S) [3] = biological target: T2, human PARIS (WT, C631S) (Homo sapiens, UniProt Q6NUN9, C631S); assay: as above; format: cell-based; conditions: C2C12 with FLAG-PARIS C631S, 0.1 uM farnesol, 24 hours
T2 construct: Human full length PARIS cDNA (IMAGE: 30347892); expressed in transfected cells; host or cells: C2C12 myoblasts, pCMV-Tag2A (Stratagene)
T2 sequence (Q6NUN9 whole entry C631S): as above
Method: as §2, §3, §4

human PGC-1α promoter = assay: Screening of compounds using PGC-1α reporter (luciferase) C2C12 cell line; format: cell-based, mouse; conditions: 10 μM, 48 hours, luciferase luminescence
Method: To screen for a compound activating PGC-1α gene expression in C2C12 myoblast, a PGC-1α reporter-expressing C2C12 cell line (hereinafter, referred to as ‘PGC-1α reporter cell line’ or ‘C2C12-PGC-1α cell line) is established. A vector expressing luciferase and dscGFP (destabilized Green Fluorescent Protein) under human PGC-1α promoter having a length of 1 kb is prepared, and this vector is inserted into lentivirus to transfect C2C12 cells. To select a cell line that genetically and stably expresses this vector, fluorescence emitted from green fluorescent protein (GFP) included in the vector is monitored. […] The expression level is measured by luminescence after addition of a luciferase substrate, thereby determining activation or inhibition of PGC-1α transcription by the compound.
The C2C12-PGC-1α reporter cell line prepared in Section 1 is used to screen a PGC-1α expression regulator from 2320 compounds provided by Korea chemical bank. […] 48 hours later, luminescence by luciferase is measured. in detail, cells are lysed in 10 μl of passive lysis buffer (50 mM Tris-HCl, 7.5 mM MgCl2, 750 mM NaCl, 5 mM EGTA, 1% Triton-x 100, 1 mM Na3VO4, 10 mM NaF, 0.1 mM PMSF (phenylmethanesulfonylfluoride), PI (protease inhibitor)) as a cell lysis buffer, and 50 μl of a luciferase substrate, luciferin was added thereto to allow enzymatic reaction. Then, luminescence is measured. […]

CC(C)=CCC/C(C)=C/CC/C(C)=C/CO [farnesol, (2E,6E)-3,7,11-trimethyldodeca-2,6,10-trien-1-ol]
reduction in PARIS-farnesylation by high fat diet (PARIS, PGC-1α): inhibited
reduction in PGC-1α expression by high fat diet (PARIS, PGC-1α): inhibited
expression of PGC-1α in tibialis anterior muscle (PGC-1α): increased
expression of cytochrome C in tibialis anterior muscle (PGC-1α): increased
muscle fibers of gastrocnemius, soleus, extensor digitorum longus and tibialis anterior muscle (appearance) [1]: converted to red muscles having a high percentage of oxidative muscle fibers
PGC-1α level, PARIS WT (human PARIS (WT, C631S) [2]): PGC-1α increase
farnesylation of PARIS WT (human PARIS (WT, C631S) [2]): increased
PGC-1α level, PARIS C631S mutant (human PARIS (WT, C631S) [3]): does not affect
PGC-1α promoter activity relative to control group DMSO (human PGC-1α promoter): greatly increasing
